Broadly, the IC50 is the concentration that inhibits the measured activity by half. Higher therefore signals weaker potency.

“And” between values parts separate entries of the source, which are not always exact repeats. Equal values may be shown once.

For the test, the target named is Replicase polyprotein 1ab (Severe acute respiratory syndrome coronavirus 2, UniProt P0DTD1). Description: Functional biochemical assay to identify treatments for viral infectious disease that targets SARS-COV-2 nsp3 macrodomain, whereby the mechanism of action displaces an ADP-Ribose modified peptide from the binding site. Utilizing a time-resolved fluorescence method to measure binding by reading the emitted fluorescence intensity in two wavelengths.
As to `CCNC(=O)c1cc2c(N[C@@H](c3ccc4c(c3)OCCO4)C(C)C)ncnc2[nH]1`, the half-inhibitory concentration (IC50) was 280 nM and 305 nM and 287 nM and 614 nM.
As to `Cc1ncc(-c2cc3c(N[C@@H](c4ccc5c(c4)OCCO5)C(C)C)ncnc3[nH]2)cn1`, the concentration for half-maximal inhibition (IC50) was 479 nM and 585 nM.
With `CC(C)[C@@H](Nc1ncnc2[nH]c(-c3cnn(CCC(N)=O)c3)cc12)c1ccc2c(c1)OCCO2`, the IC50 is 274 nM and 319 nM.
For `CC(C)[C@@H](Nc1ncnc2[nH]c(C(N)=O)cc12)c1ccc2c(c1)OCCO2`, the IC50 is 453 nM and 466 nM.
Consider `Cn1ncc(-c2cc3c(N[C@@H](c4ccc5c(c4)OCCO5)C(C)(C)C)ncnc3[nH]2)c1C#N`, for which the IC50 is 309 nM and 332 nM.
For `CC(C)[C@@H](Nc1ncnc2[nH]c(-c3cnn(C)n3)cc12)c1ccc2c(c1)OCCO2`, the IC50 is 485 nM and 517 nM.
On to `CC(C)[C@@H](Nc1ncnc2[nH]c(C3CCS(=O)(=O)CC3)cc12)c1ccc2c(c1)OCCO2`, for which the IC50 was 1190 nM and 1780 nM.
In the case of `CCn1ncc(-c2cc3c(N[C@@H](c4ccc5c(c4)OCCO5)C(C)C)ncnc3[nH]2)c1C`, the IC50 is 905 nM and 1060 nM.
Turning to `CCn1ncc(-c2cc3c(N[C@@H](c4ccc5c(c4)OCCO5)C(C)C)ncnc3[nH]2)c1C#N`, the concentration for half-maximal inhibition (IC50) is 857 nM and 800 nM.
In the case of `CC(C)[C@@H](Nc1ncnc2[nH]c(-c3cccc(NC(N)=O)c3)cc12)c1ccc2c(c1)OCCO2`, the IC50 is 5140 nM and 5850 nM.
Take `COc1cnn(C)c1-c1cc2c(N[C@@H](c3ccc4c(c3)OCCO4)C(C)C)ncnc2[nH]1`: the IC50 is 50900 nM and 55900 nM.
`CC(C)[C@@H](Nc1ncnc2[nH]c(-c3ccc(-n4cccn4)cc3)cc12)c1ccc2c(c1)OCCO2` displayed a concentration for half-maximal inhibition (IC50) above 99500 nM.
Then `CC(C)[C@@H](Nc1ncnc2[nH]c(-c3ccnn3C3CCC3)cc12)c1ccc2c(c1)OCCO2`, with 5590 nM and 8760 nM; and `CC(C)[C@@H](Nc1ncnc2[nH]c([C@@H]3CCOC3)cc12)c1ccc2c(c1)OCCO2`, with 1860 nM and 1950 nM; and `Cc1c(C#N)cncc1-c1cc2c(N[C@@H](c3ccc4c(c3)OCCO4)C(C)C)ncnc2[nH]1`, with 19200 nM and 16300 nM.
Regarding `C[C@@H](C(=O)O)[C@@H](NC(=O)c1ncnc2[nH]ccc12)c1ccc(Br)cc1`, the IC50 is 808 nM and 532 nM.
Then `CNC(=O)c1c[nH]c2ncnc(N[C@@H](c3ccc4c(c3)OCCO4)C(C)C)c12`, with 728 nM and 692 nM; and `CC(C)[C@@H](Nc1ncnc2[nH]c(-c3cccc4c3CN(C)C4=O)cc12)c1ccc2c(c1)OCCO2`, with 2150 nM and 2540 nM; and `O=C(O)[C@@H]1CC2(CCCCC2)CN1c1ncnc2[nH]ccc12`, with above 99500 nM.
As to `CC(C)[C@H](Nc1ncnc2[nH]c(-c3cnn(CC(N)=O)c3)cc12)c1ccc2c(c1)OCCO2`, the IC50 was 90000 nM and 93500 nM.
Consider `CC(C)[C@@H](Nc1ncnc2[nH]c(-c3cncn3C)cc12)c1ccc2c(c1)OCCO2`, for which the 50% inhibitory concentration (IC50) was 5770 nM and 7420 nM.
With `CC(C)[C@@H](Nc1ncnc2[nH]cc(C(N)=O)c12)c1ccc2c(c1)OCCO2`, the half-maximal inhibitory concentration (IC50) is 786 nM and 865 nM.
As for `COC(=O)c1c[nH]c2ncnc(N[C@@H](c3ccc4c(c3)OCCO4)C(C)C)c12`, the half-inhibitory concentration (IC50) is 3110 nM and 3490 nM.
For `CC(C)[C@@H](Nc1ncnc2[nH]c(-c3cnn(C(C)C)c3C#N)cc12)c1ccc2c(c1)OCCO2`, the IC50 was 1840 nM and 2020 nM.
In the case of `CCn1ccc(-c2cc3c(N[C@@H](c4ccc5c(c4)OCCO5)C(C)C)ncnc3[nH]2)n1`, the IC50 is 1320 nM and 1530 nM.
On to `CC(C)[C@@H](Nc1ncnc2[nH]c(-c3ccnn3CC3CC3)cc12)c1ccc2c(c1)OCCO2`, for which the 50% inhibitory concentration (IC50) is 4220 nM and 3900 nM.
In the case of `CO[C@H]1C[C@@H](C(=O)O)N(c2ncnc3[nH]ccc23)C1`, the IC50 is 79400 nM and 83600 nM.
With `CC(C)[C@@H](Nc1ncnc2[nH]c(-c3[nH]ncc3C3CC3)cc12)c1ccc2c(c1)OCCO2`, the half-inhibitory concentration (IC50) is 16100 nM and 14300 nM.
For the compound `O=C(O)[C@H]1C[C@H](O)CN1c1ncnc2[nH]ccc12`, the half-inhibitory concentration (IC50) was above 99500 nM.
As to `CC(C)[C@@H](Nc1ncnc2[nH]c(-c3ccn(C)n3)cc12)c1ccc2c(c1)OCCO2`, the concentration for half-maximal inhibition (IC50) is 972 nM and 1020 nM.
Compound `COc1ccc([C@@H]2CN(C(=O)c3ncnc4[nH]ccc34)C[C@H]2C(=O)O)cc1` displayed an IC50 above 99500 nM.
For the compound `Cc1cc(-c2cc3c(N[C@@H](c4ccc5c(c4)OCCO5)C(C)C)ncnc3[nH]2)[nH]n1`, the concentration for half-maximal inhibition (IC50) is 2560 nM and 3090 nM.
For the compound `CC(C)[C@@H](Nc1ncnc2[nH]cc(C(=O)N(C)C)c12)c1ccc2c(c1)OCCO2`, the half-inhibitory concentration (IC50) is 1950 nM and 1970 nM.
Compound `CC(C)[C@@H](Nc1nc(N(C)C)nc2[nH]ccc12)c1ccc2c(c1)OCCO2` yielded an IC50 above 99500 nM.
The result for `CC(=O)c1ccc(-c2cc3c(N[C@@H](c4ccc5c(c4)OCCO5)C(C)C)ncnc3[nH]2)[nH]1` reads 2970 nM and 3240 nM.
Then `COC(=O)c1cc2c(N[C@@H](c3ccc4c(c3)OCCO4)C(C)C)ncnc2[nH]1`, with 5310 nM and 6500 nM; and `CC(C)[C@@H](Nc1ncnc2[nH]c(-c3ccn(C(C)C)n3)cc12)c1ccc2c(c1)OCCO2`, with 2270 nM and 2620 nM.
For `CC(C)[C@@H](Nc1ncnc2[nH]c(-c3cncc(OCCN(C)C)c3)cc12)c1ccc2c(c1)OCCO2`, the IC50 is 903 nM and 891 nM.
For the compound `CC(C)[C@@H](Nc1ncnc2[nH]c(-c3ccnn3C3CC3)cc12)c1ccc2c(c1)OCCO2`, the IC50 was 1080 nM and 1230 nM.
For `CC(C)[C@@H](Nc1ncnc2[nH]cc(S(=O)(=O)N(C)C)c12)c1ccc2c(c1)OCCO2`, the IC50 was 3450 nM and 3980 nM.
Then `O=C(O)[C@H](CC1CCCCC1)Nc1ncnc2[nH]ccc12`, with 92300 nM and 91800 nM; and `Cc1cnn(-c2ccc(-c3cc4c(N[C@@H](c5ccc6c(c5)OCCO6)C(C)C)ncnc4[nH]3)cc2)c1`, with above 99500 nM.
On to `CNS(=O)(=O)c1c[nH]c2ncnc(N[C@@H](c3ccc4c(c3)OCCO4)C(C)C)c12`, for which the concentration for half-maximal inhibition (IC50) was 2570 nM and 2600 nM.
With `CC(C)[C@@H](Nc1ncnc2[nH]c(-c3cncc(C#N)c3)cc12)c1ccc2c(c1)OCCO2`, the IC50 is 5810 nM and 7130 nM.
`CC(C)[C@@H](Nc1ncnc2[nH]c(-c3ccc(C4(C#N)CC4)cc3)cc12)c1ccc2c(c1)OCCO2`: the half-maximal inhibitory concentration (IC50) was above 99500 nM.
`CC(C)[C@@H](Nc1ncnc2[nH]c(-c3ccnc(N4CCCC4)c3)cc12)c1ccc2c(c1)OCCO2`: the IC50 is 16600 nM and 17200 nM.
Turning to `CC(=O)c1ccc(-c2cc3c(N[C@@H](c4ccc5c(c4)OCCO5)C(C)C)ncnc3[nH]2)o1`, the IC50 is 1510 nM and 1450 nM.
Turning to `CC(C)c1n[nH]cc1-c1cc2c(N[C@@H](c3ccc4c(c3)OCCO4)C(C)C)ncnc2[nH]1`, the IC50 is 2010 nM and 2070 nM.
Compound `COc1ccc(C(=O)Nc2ccc(C(=O)N[C@@H]3c4ccccc4C[C@@H]3C(=O)O)cc2)cc1S(=O)(=O)NCCN1CCCC1` returned a half-maximal inhibitory concentration (IC50) above 99500 nM.
In turn, `O=C(Nc1ccc(C(=O)N[C@@H]2c3ccccc3C[C@@H]2C(=O)O)cc1)c1ccc(C(=O)NC2CC2)cc1` had an IC50 above 99500 nM.
`CC(C)[C@H](Nc1ncnc2[nH]ccc12)c1ccc2c(c1)NC(=O)CO2` returned a half-inhibitory concentration (IC50) above 99500 nM.
Consider `CC(C)[C@@H](Nc1ncnc2[nH]c(-c3cn(C)nc3C#N)cc12)c1ccc2c(c1)OCCO2`, for which the IC50 was 871 nM and 843 nM.
Take `COCCn1ncc(-c2cc3c(N[C@@H](c4ccc5c(c4)OCCO5)C(C)C)ncnc3[nH]2)c1C#N`: the IC50 is 394 nM and 449 nM.
Then `Cc1cocc1-c1cc2c(N[C@@H](c3ccc4c(c3)OCCO4)C(C)C)ncnc2[nH]1`, with 2510 nM and 2580 nM; and `Cc1noc(C)c1-c1cc2c(N[C@@H](c3ccc4c(c3)OCCO4)C(C)C)ncnc2[nH]1`, with 16700 nM and 18500 nM; and `O=C(O)[C@H]1C[C@@H](F)CN1c1ncnc2[nH]ccc12`, with above 99500 nM.
Then `COc1ccc([C@@](C)(CC(=O)O)NC(=O)c2ncnc3[nH]ccc23)cc1`, with 19300 nM and 18200 nM.
As for `CC(C)[C@@H](Nc1ncnc2[nH]c(-c3cnn(C4CCC4)n3)cc12)c1ccc2c(c1)OCCO2`, the half-inhibitory concentration (IC50) was 3840 nM and 3920 nM.
As for `CC(C)[C@@H](Nc1ncnc2[nH]c(-c3ccnc(C#N)c3)cc12)c1ccc2c(c1)OCCO2`, the IC50 was 2090 nM and 2220 nM.
On to `CC(C)[C@@H](Nc1ncnc2[nH]c(-c3cnc(C#N)nc3)cc12)c1ccc2c(c1)OCCO2`, for which the IC50 is 2520 nM and 2510 nM.
In the case of `CC(C)[C@@H](Nc1ncnc2[nH]c(C(=O)N(C)C)cc12)c1ccc2c(c1)OCCO2`, the IC50 was 21900 nM and 18900 nM.
As for `Cc1coc(-c2cc3c(N[C@@H](c4ccc5c(c4)OCCO5)C(C)C)ncnc3[nH]2)c1`, the half-maximal inhibitory concentration (IC50) is above 99500 nM.
`Cc1nn(C)nc1-c1cc2c(N[C@@H](c3ccc4c(c3)OCCO4)C(C)C)ncnc2[nH]1`: the IC50 was 27600 nM and 34200 nM.
Take `N#Cc1ccc(C(=O)Nc2ccc(C(=O)N[C@@H]3c4ccccc4C[C@@H]3C(=O)O)cc2)cc1`: the IC50 was above 99500 nM.
`COc1cc(Nc2ccc(C(=O)N[C@@H]3c4cccc(O)c4C[C@H]3C(=O)O)cc2)[nH]n1` gave an IC50 above 99500 nM.
Turning to `O=C(Nc1ccc(C(=O)N[C@@H]2c3ccccc3C[C@@H]2C(=O)O)cc1)c1ccc(N2CCC(O)CC2)cc1`, the IC50 is above 99500 nM.
In the case of `CCn1cc(-c2cc3c(N[C@@H](c4ccc5c(c4)OCCO5)C(C)C)ncnc3[nH]2)c(C)n1`, the IC50 was 423 nM and 473 nM.
Regarding `CC(C)[C@@H](Nc1ncnc2[nH]c(-c3ccc4[nH]ncc4c3)cc12)c1ccc2c(c1)OCCO2`, the IC50 was 20500 nM and 19700 nM.
Turning to `COc1nn(C)cc1-c1cc2c(N[C@@H](c3ccc4c(c3)OCCO4)C(C)C)ncnc2[nH]1`, the IC50 is 1790 nM and 1910 nM.
For the compound `CC(C)[C@@H](Nc1ncnc2[nH]cc(S(N)(=O)=O)c12)c1ccc2c(c1)OCCO2`, the 50% inhibitory concentration (IC50) is 3430 nM and 3070 nM.
For `CC(C)[C@@H](Nc1ncnc2[nH]c(-c3cccc(C#N)c3)cc12)c1ccc2c(c1)OCCO2`, the IC50 was 17800 nM and 22100 nM.
As for `Cc1cc(-c2cc3c(N[C@@H](c4ccc5c(c4)OCCO5)C(C)C)ncnc3[nH]2)n(C)n1`, the IC50 was 1070 nM and 1020 nM.
As to `CCn1cc(-c2cc3c(N[C@@H](c4ccc5c(c4)OCCO5)C(C)C)ncnc3[nH]2)cn1`, the IC50 is 626 nM and 652 nM.
`COC(=O)c1c[nH]c(-c2cc3c(N[C@@H](c4ccc5c(c4)OCCO5)C(C)C)ncnc3[nH]2)c1`: the IC50 is 2980 nM and 3580 nM.
The result for `CC(C)[C@@H](Nc1ncnc2[nH]c(-c3cnn(CC4CC4)c3)cc12)c1ccc2c(c1)OCCO2` reads 804 nM and 853 nM.
Then `CC(C)[C@@H](Nc1ncnc2[nH]c(-c3ccoc3)cc12)c1ccc2c(c1)OCCO2`, with 1520 nM and 1640 nM; and `COc1ccc([C@@H](CC(=O)O)NC(=O)c2c[nH]c3c(NC(=O)NC4CC4)cccc23)cc1`, with above 99500 nM.
For `CC(C)[C@@H](Nc1ncnc2[nH]c(C3=CCOC3)cc12)c1ccc2c(c1)OCCO2`, the 50% inhibitory concentration (IC50) is 421 nM and 563 nM.
